Reference: patent US10105378B2, “Enrichment methods for preparing tannic acid compositions” (SyneuRx International (Taiwan) Corp., priority 2016, dated 2018)

Legend:
[1] = molecular target: D-amino acid oxidase (DAAO) (UniProt P14920)
Protocol: The activity of DAAO was determined in vitro by measuring the inhibition of the catabolism of known substrate, D-proline. The cofactor FAD (40 ? M) was added to the DAAO stock solution first. For the assay, potential inhibitors of tannic acid(s) were mixed with reaction mixture containing phosphate buffered saline (137 mM NaCl, 3 mM KCl, 10 mM Na2HPO4, 2 mM NaH2PO4, pH 7.4), horseradish peroxidase (5 U/ml), o-phenylendiamine (OPD, 0.03%), and 0.6 μg human-(or porcine-) DAAO, and incubated for about 5 min. After the pre-incubation period, 40 mM D-proline were added as substrate and the reaction continued for 10 min. OPD was oxidized to form 2,3-diaminophenazine (DAP) by horseradish peroxidase. The absorbance of DAP was measured at 453 nm by a spectrophotometry. Assay was done in serial dilutions of the inhibitors to generate IC50 and analyzed by Prism (Graphpad Software). In the analysis, the spectrophotometry readings were fit to a standard equation to determine the concentration of 50% inhibition (IC50). All enzymatic assays were conducted at room temperature in 96-well plate format.
The DAAO inhibitory activities of subgroups of tannic acids (having a particular number of galloyl moieties) were determined as follows.

[2] = test system: MK-801 treated mice; assay: Open field locomotion in MK-801 treated mice (Example 9); assay type: in vivo, C57BL/6J male mice; settings: MK-801 0.2 mg/kg i.p. alone
Protocol: Each mouse in Groups 2-5 received an acute administration of 0.2 mg/kg MK-801 (Sigma-Aldrich, USA) dissolved in normal saline by i.p. injection 20 minutes prior to the locomotion activity test. Each mouse in Groups 3-6 received an acute oral administration of 50 mg/kg tannic acids dissolved in ddH2O by p.o. 20 minutes prior to the MK-801 administration. Tannic acid purchased from Merch Millipore (Merck TA) and from Wufeng Chicheng Biotech (CCBiotech TA), and tannic acid from Enrichment method 10 (Enrichment #10) at 50 mg/kg were used in this study.
The open field task is a common measurement of novelty induced exploratory behavior and general activity in both mice and rats. In this study, the mice were placed in a PLEXIGLAS® cage (37.5 cm×21.5 cm×18 cm) under 50-65 lux light intensity. Their spontaneous locomotor activities were measured for 30 minutes using the SMART video tracking system (Panlab, Harvard Apparatus). The travel distance of each mouse was measured as an index of locomotion activity.

[3] = test system: MK-801 treated mice; assay: Prepulse inhibition in MK-801 treated mice (Example 9); assay type: in vivo, C57BL/6J male mice; settings: MK-801 0.3 mg/kg i.p. alone
Protocol: Each mouse in Groups 2-4 received an acute administration of 0.3 mg/kg MK-801 (Sigma-Aldrich, USA) dissolved in normal saline by i.p. injection 20 minutes prior to the prepulse inhibitin test. Each mouse in Groups 3-4 received an acute oral administration of 50 or 200 mg/kg Enrichment #10 tannic acids dissolved in ddH2O by p.o. 20 minutes prior to the MK-801 administration.
Prepulse inhibition was used as an index of sensorimotor gating function using SR-LAB startle apparatus (San Diego Instruments, San Diego, Calif., USA). Under 65 dB background noise, each session was composed of 5 minutes accumulation period followed by 64 trials in four blocks. The pulse alone (PA) trial was a 40 ms, 120 dB white noise burst. In the prepulse (pp)+pulse trials, a 20 ms white noise prepulse stimuli of 71 dB (pp6), 75 dB (pp10), and 83 dB (pp18) were presented 100 ms before a 40 ms 120 dB pulse. The non-stimulus (NS) trials presented the background noise only. The initial and the last blocks were composed of six PA trials, respectively. Two middle blocks consisted of PA, pp+pulse, and NS trials. […] The percentage of prepulse inhibition was evaluated by the following formula: % PPI=100×[(PA score)−(pp−P score)]/(PA score), where the PA score was the average of the PA value in the middle blocks

[4] = test system: MK-801 treated mice; assay: Sucrose preference (anhedonia) in MK-801 treated mice; assay type: in vivo, C57BL/6J male mice; settings: MK-801 0.2 mg/kg i.p. alone
Protocol: (§1) Each mouse in Groups 2-5 received an acute administration of MK-801 (Sigma-Aldrich, USA) dissolved in normal saline, 0.1 mg/kg for open field and Barnes maze tasks, and 0.2 mg/kg for prepulse inhibition and sucrose preference tasks by i.p. injection) 20 minutes prior to the behavioral tests. Each mouse in Groups 3-6 received an acute oral administration of tannic acids (Merck Millipore, Germany; dissolved in PBS, 10, 30, or 100 mg/kg, p.o.) 20 minutes prior to the MK-801 administration.
Sucrose preference test has been commonly examined in mouse models of several mental illnesses, including, but not limited to, depression, major depression disorder, anhedonia, negative symptoms of schizophrenia, chronic mild and unpredictable stress (see Anderson et al., 2006; Carvalho et al., 2013; Briones et al., 2011; Der-Avakian and Markou, 2012; Tye et al., 2013; Edwards and Koob, 2012; Brigman et al., 2010; Koo and Duman, 2007; Nestler and Hyman, 2010; Overstreet, 2012; Papp et al., 1991; Santiago et al., 2010; Skalisz et al., 2002; Szczypka et al., 2001; Taylor et al., 2010; Vardigan et al., 2010; Willner et al., 1987; You et al., 2011).

[5] = test system: MK-801 treated mice; assay: Prepulse inhibition in MK-801 treated mice (Examples 3, 4); assay type: in vivo, C57BL/6J male mice; settings: MK-801 0.2 mg/kg i.p. alone
Protocol: (§2) Each mouse in Groups 2-6 received an acute administration of MK-801 (Sigma-Aldrich, USA) dissolved in normal saline, 0.1 mg/kg, i.p.) 20 minutes prior to the behavioral tests. Each mouse in Groups 3-6 received an acute administration of tannic acids (Sigma-Aldrich, USA; dissolved in PBS, 10, 15, 20 or 30 mg/kg, i.p.) 20 minutes prior to the MK-801 administration.
Prepulse inhibition was used as an index of sensorimotor gating function using SR-LAB startle apparatus (San Diego Instruments, San Diego, Calif., USA). Under 72 dB background noise, each session was composed of 5 minutes accumulation period followed by 64 trials in four blocks. The pulse alone (PA) trial was a 40 ms, 120 dB white noise burst. In the prepulse (pp)+pulse trials, a 20 ms white noise prepulse stimuli of 78 dB (pp6), 82 dB (pp10), and 90 dB (pp18) were presented 100 ms before a 40 ms 120 dB pulse. The non-stimulus (NS) trials presented the background noise only. The initial and the last blocks were composed of six PA trials, respectively. Two middle blocks consisted of PA, pp+pulse, and NS trials. […] The percentage of prepulse inhibition was evaluated by the following formula: % PPI=100×[(PA score)−(pp−P score)]/(PA score), where the PA score was the average of the PA value in the middle blocks. […]

[6] = test system: MK-801 treated mice; assay: Open field locomotion in MK-801 treated mice (Examples 3, 4); assay type: in vivo, C57BL/6J male mice; settings: MK-801 0.1 mg/kg i.p. alone
Protocol: as §2
All mice in this study were tested with open field task and prepulse inhibition task with at least 1-week interval between two tasks. An additional cohort of mice was used to test the effect of different sources of tannic acid on prepulse inhibition.
as §1
In this test, tannic acids were administered orally 20 minutes before the MK-801 (0.1 mg/kg) injection.

SMILES | IC50 ([1]; read-out: IC50 (μM), potency of individual tannic acids, Table 4) [µM] | Relative DAAO activity (%) ([1]; samples at 300 nM) | locomotion activity vs control group [2] | prepulse inhibition vs control group [3] | preference toward the sucrose solution (2%) [4] | prepulse inhibition vs control group [5] | locomotion activity vs control group ([6]; Example 3) | locomotion ([6]; Example 4)
O=C(OC[C@H]1OC(OC(=O)c2cc(O)c(O)c(OC(=O)c3cc(O)c(O)c(O)c3)c2)[C@H](OC(=O)c2cc(O)c(O)c(OC(=O)c3cc(O)c(O)c(O)c3)c2)[C@@H](OC(=O)c2cc(O)c(O)c(OC(=O)c3cc(O)c(O)c(O)c3)c2)[C@@H]1OC(=O)c1cc(O)c(O)c(OC(=O)c2cc(O)c(O)c(O)c2)c1)c1cc(O)c(O)c(OC(=O)c2cc(O)c(O)c(O)c2)c1 (some centres unmarked) [10G] | 0.215 | 19.25 | – | – | – | – | – | –
C[C@]12N[C@H](Cc3ccccc31)c1ccccc12 [MK-801] | – | – | hyper-locomotion activity | induced robust prepulse inhibition deficits in all prepulse intensities | did not show the preference toward the sucrose solution | induced robust prepulse inhibition deficits | hyper-locomotion activity | induced hyper-locomotion
